The results in this text go back to patent publication EP0012139A1, “Therapeutic agent for stimulating the immune response in a mammal” (AMERICAN CYANAMID COMPANY, priority 1978, dated 1980).

Where a name gives a salt, the structure may show the parent alone.

For one data set, the system named is Rauscher leukemia virus. Briefly: Antibody response to sheep red blood cells in Rauscher leukemia virus-infected (leukemic) mice, hemagglutinin test. The settings on record: for Hemagglutinin Titer* Test 6: infected control 32, non-infected control 2048; for Hemagglutinin Titer* Test 5: infected control 128, non-infected control 4096; for Hemagglutinin Titer* Test 1: reciprocal of serum dilution producing at least 50% agglutination, infected control 8, non-infected control 1024. Format: in vivo, BALB/C mice.

In data set [1] the test system is transplantable C3H mammary tumor. Briefly: Transplanted C3H mammary tumor growth in mice. The settings on record: for Ave. tumor diameter (mm.^2) (weeks after tumor implantation 3): week 3, untreated control 22; for Ave. tumor diameter (mm.^2) (weeks after tumor implantation 4): week 4, untreated control 73; for Ave. tumor diameter (mm.^2) (weeks after tumor implantation 5): week 5, untreated control 149; for Ave. tumor diameter (mm.^2) (weeks after tumor implantation 6): week 6, untreated control 218; for Ave. tumor diameter (mm.^2) (weeks after tumor implantation 7): week 7, untreated control 316.
Experimental: C3H/HEB/J male mice were inoculated subcutaneously with five 2 mm. fragments of a transplantable C3H mammary tumor on day zero. Drugs were administered once every 7 days for 5 weeks, starting 14 days after tumor inoculation. When test drug (or the control, Corynebacterium parvum) was administered in combination with Cytoxan, it was given 4 days after the Cytoxan. […] Tumor diameters were measured by means of a Vernier caliper. Test substances were considered active if tumor growth, as indicated by tumor diameter, was inhibited by 50% or more.

Setting [2] is: 100 mg/kg orally days 6, 7, 8, reciprocal serum dilution, infected control 32, non-infected control 512.
The mark [3] stands for this setting: 100 mg./kg. orally + Cytoxan 60 mg./kg.
[4] abbreviates: 200 mg./kg. orally + Cytoxan 60 mg./kg.
Where [5] appears, read: 300 mg./kg. orally + Cytoxan 60 mg./kg.
Setting [6] is: Cytoxan 60 mg./kg. intraperitoneally alone.

With `CCN(CC)CCOc1ccc2cc3ccc(OCCN(CC)CC)cc3nc2c1.Cl.Cl.Cl` [3,6-Bis-(2-diethylaminoethoxy)acridine trihydrochloride], the “Hemagglutinin Titer* Test 6” value in the data set with Rauscher leukemia virus (37.5 mg/kg orally days 6, 7, 8, reciprocal serum dilution) came out at 64; with Rauscher leukemia virus (75 mg/kg orally days 6, 7, 8, reciprocal serum dilution), 128; in the data set with Rauscher leukemia virus (150 mg/kg orally days 6, 7, 8, reciprocal serum dilution) it was 128; in the data set on Rauscher leukemia virus (300 mg/kg orally days 6, 7, 8, reciprocal serum dilution), 128; in the data set on Rauscher leukemia virus (600 mg/kg orally days 6, 7, 8, reciprocal serum dilution), 256. Further, the “Hemagglutinin Titer* Test 4” value came to 128 with Rauscher leukemia virus (50 mg/kg orally days 6, 7, 8, reciprocal serum dilution, infected control 32, non-infected control 512) and 256 with Rauscher leukemia virus (setting [2]). The “Hemagglutinin Titer* Test 5” value in the data set on Rauscher leukemia virus (50 mg/kg orally days 6, 7, 8, reciprocal serum dilution) worked out at 128; with Rauscher leukemia virus (100 mg/kg orally days 6, 7, 8, reciprocal serum dilution), 512; in the data set with Rauscher leukemia virus (200 mg/kg orally days 6, 7, 8, reciprocal serum dilution), 512. In the data set on Rauscher leukemia virus (setting [2]), the “Hemagglutinin Titer* Test 3” value is given as 128. Moreover, the “Ave. tumor diameter (mm.^2) (weeks after tumor implantation 3)” value in data set [1] (100 mg./kg. orally + Cytoxan 60 mg./kg. i.p. (given 4 days after Cytoxan)) stood at 34 mm.^2; in data set [1] (200 mg./kg. orally + Cytoxan 60 mg./kg. i.p. (given 4 days after Cytoxan)), 32 mm.^2; in data set [1] (200 mg./kg. orally alone, once every 7 days), 22 mm.^2; in data set [1] (300 mg./kg. orally + Cytoxan 60 mg./kg. i.p. (given 4 days after Cytoxan)), 37 mm.^2; in data set [1] (300 mg./kg. orally alone, once every 7 days), 61 mm.^2. Also, the “Ave. tumor diameter (mm.^2) (weeks after tumor implantation 4)” value in data set [1] (setting [3]) stood at 53 mm.^2; in data set [1] (setting [4]) it was 66 mm.^2; in data set [1] (200 mg./kg. orally alone), 44 mm.^2; in data set [1] (setting [5]), 71 mm.^2; in data set [1] (300 mg./kg. orally alone) it was 98 mm.^2. In addition, the “Ave. tumor diameter (mm.^2) (weeks after tumor implantation 5)” value in data set [1] (setting [3]) is reported as 112 mm.^2; in data set [1] (setting [4]) it was 82 mm.^2; in data set [1] (200 mg./kg. orally alone), 109 mm.^2; in data set [1] (setting [5]), 99 mm.^2; in data set [1] (300 mg./kg. orally alone), 220 mm.^2. For the same molecule, the “Ave. tumor diameter (mm.^2) (weeks after tumor implantation 6)” value is reported as 149 mm.^2 in data set [1] (setting [3]); 115 mm.^2 in data set [1] (setting [4]); 148 mm.^2 in data set [1] (200 mg./kg. orally alone); 128 mm.^2 in data set [1] (setting [5]); 375 mm.^2 in data set [1] (300 mg./kg. orally alone). Besides, the “Ave. tumor diameter (mm.^2) (weeks after tumor implantation 7)” value in data set [1] (setting [3]) was 107 mm.^2; in data set [1] (setting [4]) it was 135 mm.^2; in data set [1] (200 mg./kg. orally alone), 223 mm.^2; in data set [1] (setting [5]), 160 mm.^2. In data set [1] (administered alone at 300, 200 and 100 mg./kg. every week for 5 weeks), the “inhibitory effect on mammary tumor growth compared to the untreated control” value is given as “only the 200 mg./kg. dose level produced an inhibitory effect”. The “tumor growth being inhibited” value in data set [1] (combined with Cytoxan 60 mg./kg., all dose levels (300, 200, 100 mg./kg.)) is recorded as 50 - 65%. Further, the “tumor diameter of treated mice averaging” value in data set [1] (combined with Cytoxan 60 mg./kg., all dose levels, 316 mm.^2 for the untreated controls) is given as 107 - 160 mm.^2.
As for `CN(C)CCOc1ccc2cc3ccc(OCCN(C)C)cc3nc2c1` [3,6-Bis-(2-dimethylaminoethoxy)acridine], the “Hemagglutinin Titer* Test 1” value in the data set on Rauscher leukemia virus (100 mg/kg orally days 6, 7, 8) is 128. Besides, the “Hemagglutinin Titer* Test 2” value in the data set with Rauscher leukemia virus (setting [2]) is 128.
Turning to `CCCCN(CCCC)CCOc1ccc2cc3ccc(OCCN(CCCC)CCCC)cc3nc2c1` [3,6-Bis-(2-di-n-butylaminoethoxy)acri-dine trihydrochloride], the “Hemagglutinin Titer* Test 1” value with Rauscher leukemia virus (100 mg/kg orally days 6, 7, 8) amounted to 32.
In the case of `CN(C)C(C)(C)COc1ccc2cc3ccc(OCC(C)(C)N(C)C)cc3nc2c1` [3,6-Bis-(2-dimethylamino-2-methylpro-poxy)acridine trihydrochloride], the “Hemagglutinin Titer* Test 1” value in the data set on Rauscher leukemia virus (100 mg/kg orally days 6, 7, 8) was determined as 64.
`CN(C)CCCOc1ccc2cc3ccc(OCCCN(C)C)cc3nc2c1` [3,6-Bis-(3-dimethylaminopropoxy)acridine]: the “Hemagglutinin Titer* Test 1” value in the data set on Rauscher leukemia virus (100 mg/kg orally days 6, 7, 8) stood at 128. For the same molecule, the “Hemagglutinin Titer* Test 2” value in the data set with Rauscher leukemia virus (setting [2]) is listed as 128.
With `O=P1(N(CCCl)CCCl)NCCCO1` (stereo not drawn) [Cytoxan, reference compound], in data set [1] (60 mg./kg. alone), the “effect of Cytoxan dose on mammary tumor growth” value is listed as “ineffective dose”. The “Ave. tumor diameter (mm.^2) (weeks after tumor implantation 3)” value in data set [1] (Cytoxan 60 mg./kg. intraperitoneally alone, once every 7 days) stood at 47 mm.^2. Also, the “No. Survivors No. Treated” value in data set [1] (Cytoxan 60 mg./kg. intraperitoneally alone, untreated control 7/8) is on record as 6/8. Also, in data set [1] (setting [6]), the “Ave. tumor diameter (mm.^2) (weeks after tumor implantation 4)” value was 101 mm.^2, the “Ave. tumor diameter (mm.^2) (weeks after tumor implantation 5)” value amounted to 187 mm.^2, the “Ave. tumor diameter (mm.^2) (weeks after tumor implantation 6)” value stood at 277 mm.^2 and the “Ave. tumor diameter (mm.^2) (weeks after tumor implantation 7)” value stood at 363 mm.^2.
